Reference: patent publication US10815226B2, “Heteroaryl compounds as inhibitors of necrosis, composition and application thereof” (ACCRO BIOSCIENCE INC., priority 2016, dated 2020)

The compounds below were run on HT29 cells (assay: HT29 cell necroptosis assay (TNF-α/Smac mimetic/z-VAD induced necrosis, viability)). Details: HT29 cells, TNF-α/Smacmimetic/z-VAD induced necrosis; values in nM.
Assay type: cell-based, human

SMILES	IC50
CC(=O)Nc1nc2ccc(-c3cnc(F)c(NC(=O)OC4CCCCC4)c3)cc2s1 [Compound A90]	300 nM
CC(=O)Nc1nc2ccc(-c3cnc(F)c(NC(=O)OC4CCCCC4)c3)cc2s1 [Compound A84]	31 nM

Same assay, conditions: Homo sapiens, HT-29, HT29 cells, TNF-α/Smacmimetic/z-VAD induced necrosis; values given in μM

SMILES	IC50
CC(=O)Nc1nc2cnc(-c3cnc(C)c(NC(=O)OC4CCCCC4)c3)cc2s1 [Compound A64]	1000 nM
CC(=O)Nc1nc2ccc(-c3cnc(C)c(NC(=O)OC4CCCCC4)c3)cn2n1 [Compound A53]	2190 nM

Same assay, conditions: Homo sapiens, HT-29, HT29 cells, TNF-α/Smacmimetic/z-VAD induced necrosis; values in nM

SMILES	IC50
CC(=O)Nc1ccc2cc(-c3cnc(C)c(NC(=O)OC4CCCCC4)c3)ccc2n1 [Compound A99]	441 nM
CC(=O)Nc1nc2ccc(-c3cnc(Cl)c(NC(=O)OC4CCCCC4)c3)cc2s1 [Compound A83]	45 nM
CC(=O)Nc1nc2ccc(-c3cnc(C)c(NC(=O)OC4CCCC4)c3)cc2s1 [Compound A47]	124 nM
CC(=O)Nc1nc2ccc(-c3cnc(C)c(NC(=O)OC4CCCCCC4)c3)cc2s1 [Compound A87]	9 nM
CC(=O)Nc1cn2nc(-c3cnc(C)c(NC(=O)OC4CCCCC4)c3)ccc2n1 [Compound A65]	167 nM
CC(=O)Nc1nc2ccc(-c3cnc(C)c(NC(=O)OC(C)(C)C)c3)cc2s1 [Compound A48]	500 nM
CC(=O)Nc1nc2ccc(-c3cnc(C)c(NC(=O)OC4CCC5(CC4)CC5)c3)cc2s1 [Compound A95]	53 nM
Cc1ncc(-c2ccc3nc(N)sc3c2)cc1NC(=O)OC1CCCCC1 [Compound A70, Cyclohexyl (5-(2-aminobenzo[d]thiazol-6-yl)-2-methylpyridin-3-yl)carbamate]	93 nM
Cc1ncc(-c2ccc3nc(NC(=O)c4ccccc4)sc3c2)cc1NC(=O)OC1CCCCC1 [Compound A104]	60 nM
CC(=O)Nc1cn2cc(-c3cnc(C)c(NC(=O)OC4CCCCC4)c3)ccc2n1 [Compound A50, Cyclohexyl (5-(2-acetamidoimidazo[1,2-a]pyridin-6-yl)-2-methylpyridin-3-yl)carbamate]	97 nM
Cc1ncc(-c2ccc3nc(NC(=O)C4CC4)sc3c2)cc1NC(=O)OC1CCOCC1 [Compound A71]	12 nM
CC(=O)Nc1nc2ccc(-c3cnc(C)c(NC(=O)NC4CCCCC4)c3)cc2s1 [Compound A49]	357 nM
CC(=O)Nc1nc2ccc(-c3cnc(C)c(NC(=O)OC4CCC(=O)CC4)c3)cc2s1 [Compound A78]	867 nM
CC(=O)Nc1nc2ccc(-c3cnc(C)c(NC(=O)O[C@H]4CC[C@@H](O)CC4)c3)cc2s1 [Compound A80]	653 nM
CCC(=O)Nc1nc2ccc(-c3cnc(C)c(NC(=O)OC4CCCCC4)c3)cc2s1 [Compound A60]	53 nM
CC(=O)Nc1nc2ccc(-c3cnc(C)c(NC(=O)OC(C)C4CC4)c3)cc2s1 (stereo not drawn) [Compound A88]	40 nM
COc1ncc(-c2ccc3nc(NC(C)=O)sc3c2)cc1NC(=O)OC1CCCCC1 [Compound A69]	107 nM
Cc1ncc(-c2ccc3nc(NC(=O)C4CC4)sc3c2)cc1NC(=O)OC1CCCOC1 (stereo not drawn) [Compound A68]	31 nM
Cc1ncc(-c2ccc3nc(NC(=O)C4CC4)cn3n2)cc1NC(=O)OC1CCCCC1 [Compound A67]	31 nM
CCOC(=O)Nc1nc2ccc(-c3cnc(C)c(NC(=O)OC4CCCCC4)c3)cc2s1 [Compound A62]	63 nM
CC(=O)Nc1nc2ccc(-c3cnc(C#N)c(NC(=O)OC4CCCCC4)c3)cc2s1 [Compound A72]	534 nM
CC(=O)Nc1nc2ccc(-c3cnc(C)c(NC(=O)OC4CCC(F)(F)CC4)c3)cc2s1 [Compound A59]	689 nM
CCC(CC)OC(=O)Nc1cc(-c2ccc3nc(NC(C)=O)sc3c2)cnc1C [Compound A89]	51 nM
CCC(C)OC(=O)Nc1cc(-c2ccc3nc(NC(C)=O)sc3c2)cnc1C (stereo not drawn) [Compound A86]	87 nM
CNC(=O)Nc1nc2ccc(-c3cnc(C)c(NC(=O)OC4CCCCC4)c3)cc2s1 [Compound A94]	10 nM
CC(=O)Nc1nc2ccc(-c3cnc(C)c(NC(=O)OC(C)C)c3)cc2s1 [Compound A73]	287 nM
Cc1ncc(-c2ccc3nc(NC(=O)C4CC4)cn3c2)cc1NC(=O)OC1CCCCC1 [Compound A81, Cyclohexyl (5-(2-(cyclopropanecarboxamido)imidazo[1,2-a]pyridin-6-yl)-2-methylpyridin-3-yl)carbamate]	9 nM
CC(=O)Nc1nc2ccc(-c3cnc(C)c(NC(=O)OC4CCC4)c3)cc2s1 [Compound A92]	121 nM

What follows are compounds tested on HT29 cells in the same assay as above. Details: 10 μM test compound pretreated one hour, TNF-α (40 ng/mL), Smacmimetic (100 nM), z-VAD (20 μM) for 48 hours.
Assay type: cell-based, human
Description: Biological in Vitro HT29 Cell Assay.
The efficacies of RIP1 inhibitors were tested in vitro using human colon cancer TH29 cells in a necroptosis assay. For the assay, Cells were added to 96-well plates and then 10 μM of the test compound was pretreated for one hour. Then the cells were treated with TNF-α (40 ng/mL), Smacmimetic (100 nM) and z-VAD (20 μM) for 48 hours, and the viability was quantified. DMSO pretreatment group was negative control, Nec-1 pretreatment group was positive control.

SMILES	HT29 Inhibition (10 μM)
CC(=O)Nc1nc2ccc(-c3ccnc(NC(=O)OC4CCCCC4)c3)cc2s1 [Compound A75]	6%
CC(=O)Nc1nc2ccc(-c3cnc(C)c(NC(=O)CN4CCC(O)CC4)c3)cc2s1 [Compound A39]	9%
Cc1ncc(-c2ccc3nc(NS(C)(=O)=O)sc3c2)cc1NC(=O)OC1CCCCC1 [Compound A85]	7%
Cc1ncc(-c2ccc3nc(N(C)C(=O)CCCCCNC(=O)OC(C)(C)C)sc3c2)cc1NC(=O)Cc1ccccc1 [Compound A101]	5%
O=C(Cc1ccccc1)Nc1cc(-c2ccc3ncsc3c2)cnc1Cl [Compound A100]	9%
Cc1ncc(-c2ccc3nc(NC(=O)CCCCCNC(=O)CCCCCNC(=O)CCCC[C@@H]4SC[C@@H]5NC(=O)N[C@@H]54)sc3c2)cc1NC(=O)Cc1ccccc1 [Compound A32]	21%
CC(=O)Nc1nc2ccc(-c3cnc(C)c(NC(=O)Oc4ccccc4)c3)cc2s1 [Compound A82]	7%
O=C(Nc1cc(-c2ccc3ncsc3c2)cnc1Cl)c1cccc(F)c1 [Compound A11]	8%
Cc1ncc(-c2ccc3[nH]c(=O)ccc3c2)cc1NC(=O)OC1CCCCC1 [Compound A97]	7%
CC(C)(C)OC(=O)NCCCNc1nc2ccc(-c3cnc(Cl)c(NC(=O)c4cccc(F)c4)c3)cc2s1 [Compound A6]	5%
CC(=O)Nc1nc2ccc(-c3cncc(NC(=O)Cc4ccccc4Cl)n3)cc2s1 [Compound A34]	1%
O=C(Nc1cc(-c2ccc3nncn3c2)cnc1Cl)c1cccc(F)c1 [Compound A10]	1%
CC(=O)Nc1nc2ccc(-c3cccc(NC(=O)Cc4ccccc4Cl)n3)cc2s1 [Compound A35]	1%
CNc1nc2ccc(-c3cnc(C)c(NC(=O)OC4CCCCC4)c3)cc2s1 [Compound A103]	20%
CC(=O)Nc1nc2ccc(-c3cncc(NC(=O)Cc4cccc(F)c4)c3)cc2s1 [Compound A17]	45%
O=C(CCCC[C@@H]1SC[C@@H]2NC(=O)N[C@@H]21)NCCCCCC(=O)NCCCNc1nc2ccc(-c3cnc(Cl)c(NC(=O)c4cccc(F)c4)c3)cc2s1 [Compound A9]	8%
CC(=O)Nc1nc2ccc(-c3cnc(C)c(NC(=O)OC4COC4)c3)cc2s1 [Compound A93]	8%

SMILES	HT29 Inhibition (10 μM)
CC(=O)Nc1nc2ccc(-c3cnc(C)c(NC(=O)OC4CCC5(CC4)OCCO5)c3)cc2s1 [Compound A77]	60%
NCCCNc1nc2ccc(-c3cnc(Cl)c(NC(=O)c4cccc(F)c4)c3)cc2s1 [Compound A7]	8%
CC(=O)Nc1nc2ccc(-c3cnc(C)c(NC(=O)CN4CCCC4)c3)cc2s1 [Compound A41]	14%
Cc1ncc(-c2ccc3nc(N(C)C(=O)CCCCCNC(=O)CCCCCNC(=O)CCCC[C@@H]4SC[C@@H]5NC(=O)N[C@@H]54)sc3c2)cc1NC(=O)Cc1ccccc1 [Compound A102]	5%
Cc1ncc(-c2ccc3nc(NCC#N)sc3c2)cc1NC(=O)OC1CCCCC1 [Compound A91]	40%
CC(=O)Nc1nc2ccc(-c3cncc(NC(=O)Cc4ccccc4)n3)cc2s1 [Compound A33]	1%
CCOC(=O)Nc1cc(-c2ccc3nc(NC(C)=O)sc3c2)cnc1C [Compound A52]	10%
CC(=O)Nc1nc2ncc(-c3cnc(C)c(NC(=O)OC4CCCCC4)c3)cc2s1 [Compound A63]	9%
CC(=O)Nc1nc2ccc(-c3cnc(C)c(NC(=O)O[C@H]4CC[C@H](O)CC4)c3)cc2s1 [Compound A79]	35%
CC(=O)Nc1ncc2ccc(-c3cnc(C)c(NC(=O)OC4CCCCC4)c3)cc2n1 [Compound A98]	50%
CC(=O)Nc1nc2ccc(-c3cnc(C)c(NC(=O)CC4CC4)c3)cc2s1 [Compound A42, N-(5-(2-acetamidobenzo[d]thiazol-6-yl)-2-methylpyridin-3-yl)-2-cyclopropylacetamide]	22%
CC(=O)Nc1nc2ccc(-c3cnc(C)c(NC(=O)CN4CCOCC4)c3)cc2s1 [Compound A38]	33%
CC(=O)Nc1nc2ccc(-c3cnc(Cl)c(NC(=O)c4ccccn4)c3)cc2s1 [Compound A2]	8%
CC(=O)Nc1ncc2cc(-c3cnc(C)c(NC(=O)OC4CCCCC4)c3)ccc2n1 [Compound A96]	8%
CC(=O)Nc1nc2ccc(-c3cnc(C)c(NC(=O)OCc4ccccc4)c3)cc2s1 [Compound A74]	8%
CC(=O)Nc1nc2ccc(-c3cnc(CCCNC(=O)CCCCCNC(=O)CCCC[C@H]4SC[C@H]5NC(=O)N[C@H]54)c(NC(=O)c4cccc(F)c4)c3)cc2s1 [Compound A8]	10%
CC(=O)Nc1nc2ccc(-c3cc(NC(=O)OC4CCCCC4)ncn3)cc2s1 [Compound A76]	5%
